# Read-outs that look alike come from different tables or passages of the source.
# Tested on: Moraxella catarrhalis
# Experiment: Broth microdilution MIC testing (CLSI)
# Type: cell-based
# Settings: for MIC: read-out: MIC (lowest concentration of drug that inhibited visible growth)
# Description: In this study, to evaluate the spectrum of activity, cannabidiol (CBD) was profiled against Moraxella. Testing was conducted following guidelines recommended by the Clinical and Laboratory Standards Institute (CLSI, 1-4), using vancomycin, meropenem, levofloxacin, and gentamicin as comparators for testing aerobic bacteria.
# Test agents were supplied by Micromyx. Stock solutions of all compounds were prepared on the first day of testing at 101× the highest test concentration using solvents recommended by CLSI. CBD was prepared fresh on each of testing.
# Prior to testing, Moraxella were streaked from frozen vials onto Trypticase Soy Agar (TSA) with 5% sheep blood (Becton Dickinson [BD]; Sparks, Md.; Lot No. 9192895), and incubated at 35° C. overnight.
# Cation-adjusted Mueller-Hinton broth (CAMHB; BD; Lot No. 8190586) was used for MIC testing.
# MIC values were determined using a broth microdilution procedure described by CLSI (1-4). Automated liquid handlers (Multidrop 384, Labsystems, Helsinki, Finland; Biomek 2000 and Biomek FX, Beckman Coulter, Fullerton, Calif.) were used to conduct serial dilutions and liquid transfers.
# To prepare the drug mother plates, which would provide the serial drug dilutions for the replicate daughter plates, the wells of columns 2 through 12 of standard 96-well microdilution plates (Costar 3795) were filled with 150 μl of the designated diluent for each row of drug. The test article and comparator compounds (300 μl at 101× the highest concentration to be tested) were dispensed into the appropriate wells in column 1. The Biomek 2000 was then used to make 2-fold serial dilutions in the mother plates from column 1 through column 11. The wells of column 12 contained no drug and served as the organism growth control wells for the assay.
# The daughter plates were loaded with 190 μL per well of the appropriate test medium for the tested organism using the Multidrop 384. The daughter plates were completed on the Biomek FX instrument which transferred 2 μL of drug solution from each well of a mother plate to the corresponding well of each daughter plate in a single step.
# A standardized inoculum of each test organism was prepared per CLSI methods (1-4). The inoculum for each organism was dispensed into sterile reservoirs divided by length (Beckman Coulter), and the Biomek 2000 was used to inoculate the plates. Daughter plates were placed on the Biomek 2000 work surface in reverse orientation so that inoculation took place from low to high drug concentration. Plates were inoculated with 10 μL of the inoculum resulting in a final cell density of approximately 5×10^5 CFU/mL per well.
# The plates for testing of Moraxella were stacked 3 to 4 high, covered with a sterile lid, and incubated at 35° C. for the time periods specified in CLSI (1-4). Plates were incubated for approximately 16 to 20 hr. Following incubation, the microplates were removed from the incubator and viewed from the bottom using a plate viewer. […] The MIC was read and recorded as the lowest concentration of drug that inhibited visible growth of the organism.
# [1] = Moraxella catarrhalis isolate MMX 3782, CAMHB, 35° C., approximately 16 to 20 hr
Compound,MIC [1] [µg/mL],further results
"C=C(C)C1CCC(C)=CC1c1c(O)cc(CCCCC)cc1O (centres unmarked) [CBD, 2-[3-methyl-6-(1-methylethenyl)-2-cyclohexen-1-yl]-5-pentyl-1,3-benzenediol]",1,
"C[C@H]1COc2c(N3CCN(C)CC3)c(F)cc3c(=O)c(C(=O)O)cn1c23 [LVX, levofloxacin]",0.03,
"C[C@@H](O)[C@H]1C(=O)N2C(C(=O)O)=C(S[C@@H]3CN[C@H](C(=O)N(C)C)C3)[C@H](C)[C@H]12 [MEM, meropenem]",≤ 0.03,
"CN[C@H](CC(C)C)C(=O)N[C@H]1C(=O)N[C@@H](CC(N)=O)C(=O)N[C@H]2C(=O)N[C@H]3C(=O)N[C@H](C(=O)N[C@H](C(=O)O)c4cc(O)cc(O)c4-c4cc3ccc4O)[C@H](O)c3ccc(c(Cl)c3)Oc3cc2cc(c3O[C@@H]2O[C@H](CO)[C@@H](O)[C@H](O)[C@H]2O[C@H]2C[C@](C)(N)[C@H](O)[C@H](C)O2)Oc2ccc(cc2Cl)[C@H]1O [VAN, vancomycin]",,MIC (Moraxella catarrhalis): 32 µg/mL
gentamicin,,MIC (lowest concentration of drug that inhibited visible growth) [1]: 0.25 µg/mL
